{"source": "patent US20260258031A1", "about": "“CRYSTALLINE FORMS OF AN ESTROGEN RECEPTOR ANTAGONIST” (Olema Pharmaceuticals, Inc., priority 2022, published 2026)", "key": {"[1]": {"details": "co-former acid of salt screen; cited from earlier work"}, "[2]": {"assay": "Kinetic solubility of Fumarate Form A Ethyl Acetate Solvate, solvent aliquot addition", "format": "physicochemical", "details": "thermodynamic from solid, ambient temperature", "procedure": "The screen consisted primarily of long term slurry experiments. To help design screen experiments, kinetic solubilities of Fumarate Form A Ethyl Acetate Solvate were estimated. The estimation was done on a 3-11 mg scale using a solvent aliquot addition method, and dissolution was judged by visual observation. Solubilities are estimated at ambient temperature and reported to the nearest mg/mL; if complete dissolution was achieved by one aliquot addition, solubilities were reported as “>”;"}, "[3]": {"assay": "Solubility in solvents, dynamic method", "format": "physicochemical", "details": "for solubility at 15 min: organic solvent or mixture, thermodynamic from solid, dynamic method", "procedure": "[…] Solubility was measured by the dynamic method and gravimetric method.\nDynamic method: Under the condition of a certain amount of solute and certain temperature, solvent was gradually added with stirring for 15 min to reach equilibrium. When solute is completely dissolved, amount of solvent was recorded and the solubility calculated."}, "[4]": {"assay": "Stability in oven at 60° C. for two weeks (HPLC purity, XRPD)", "format": "physicochemical", "details": "for HPLC Purity (%) 60° C.: after two weeks at 60° C.; for HPLC Purity (%) Starting: before storage; for Stability relative to Amorphous Compound 1 / XRPD change after storage: two weeks at 60° C.; for HPLC Purity (%) Degradation: two weeks at 60° C. versus starting", "procedure": "Amorphous Compound 1, Compound 1 Fumarate Form E, and Compound 1 Fumarate Form A Anhydrate were placed in an oven at 60° C. for two weeks to evaluate their stability."}, "[5]": {"assay": "Solubility, gravimetric method", "format": "physicochemical", "details": "H2O, 25° C.; for solubility: gravimetric method", "procedure": "Solubility studies of Compound 1 and Compound 1 Fumarate in different solvents at 25° C. were performed. Solubility was measured by the dynamic method and gravimetric method.\nGravimetric method: Excess solids and a certain amount of solvent were added 8 mL vials, stirred for 24 hours, and filtered."}, "[6]": {"assay": "Dynamic vapor sorption (DVS), hygroscopicity", "format": "physicochemical", "details": "for Hygroscopicity (%), water uptake: 25° C./80% RH", "procedure": "DVS was performed using Intrinsic DVS ([…], UK). About 30-50 mg of sample was placed in a sample basked and hung in the measuring chamber. For an isotherm test, the chamber temperature was maintained by a water bath at a constant 25±1° C. The sample was tested at a targeted RH from 0 to 90% full cycle in step mode. The analysis was performed in 10% RH increments. Time duration at each RH was set as 60 min so that the sample could reach equilibrium with the chamber environment. Data were collected in 20 s increments."}, "[7]": {"assay": "Competitive slurry experiments Form E / Form A Anhydrate (XRPD)", "format": "physicochemical", "details": "25° C. or 40° C.", "procedure": "Competitive slurry experiments were performed with Compound 1 Fumarate Form E and Compound 1 Fumarate Form A Anhydrate, as follows:\nExperiment #1: Compound 1 Fumarate Form E (100 mg), Compound 1 Fumarate Form A Anhydrate (100 mg), and isopropanol (2 mL) were added into two 8-mL vials and mixed well in a shaker at 25° C. and 40° C., respectively. Samples for analysis were taken at 24 h and 72 h.\nExperiment #2: Compound 1 Fumarate Form E (100 mg), Compound 1 Fumarate Form A Anhydrate (100 mg), and water (2 mL) were added into two 8-mL vials and mixed well in a shaker at 25° C. and 40° C., respectively. Samples for analysis were taken at 24 h and 72 h.\nExperiment #3: Compound 1 Fumarate Form E (100 mg), Compound 1 Fumarate Form A Anhydrate (100 mg), and ethyl acetate (2 mL) were added into two 8-mL vials and mixed well in a shaker at 25° C. and 40° C., respectively. Samples for analysis were taken at 24 h and 72 h."}, "[8]": {"assay": "Bulk density (untapped, graduated cylinder)", "format": "physicochemical", "procedure": "Bulk density of Compound 1 Fumarate Form E was measured by gently introducing a known sample mass into a graduated cylinder (50 mL), leveling the powder without compacting it, and recording the apparent untapped volume to the nearest graduated unit."}}, "note": "Where “and” joins values, the source holds several entries; their conditions need not be identical. Identical values can stand only once.", "data": [{"smiles": "O=C(O)CO", "note": "[Glycolic Acid]", "values": [{"measurement": "pKa", "setting": "[1]", "result": 3.28}]}, {"smiles": "CCCN1CC(Oc2ccc([C@@H]3c4[nH]c5ccccc5c4C[C@@H](C)N3CC(C)(C)F)cc2)C1.O=C(O)/C=C/C(=O)O", "values": [{"measurement": "solubility", "setting": "[2]; aqueous with cosolvent or surfactant or cyclodextrin, IPA/water (50/50)", "result": "> 124000", "unit": "µg/mL"}, {"measurement": "solubility", "setting": "[2]; organic solvent or mixture, 2-BuOH", "result": 17000, "unit": "µg/mL"}, {"measurement": "solubility", "setting": "[2]; organic solvent or mixture, 2-MeTHF", "result": 32000, "unit": "µg/mL"}, {"measurement": "solubility", "setting": "[2]; organic solvent or mixture, ACN, re-precipitated after first aliquot", "result": "< 2000", "unit": "µg/mL"}, {"measurement": "solubility", "setting": "[2]; organic solvent or mixture, Anisole", "result": "< 1000", "unit": "µg/mL"}, {"measurement": "solubility", "setting": "[2]; organic solvent or mixture, DCE", "result": "< 9000", "unit": "µg/mL"}, {"measurement": "solubility", "setting": "[2]; organic solvent or mixture, DCE/EtOH (96/4)", "result": "≥ 8000", "unit": "µg/mL"}, {"measurement": "solubility", "setting": "[2]; organic solvent or mixture, Dioxane", "result": "> 104000", "unit": "µg/mL"}, {"measurement": "solubility", "setting": "[2]; organic solvent or mixture, IPA", "result": 20000, "unit": "µg/mL"}, {"measurement": "solubility", "setting": "[2]; organic solvent or mixture, MIBK", "result": 4000, "unit": "µg/mL"}, {"measurement": "solubility", "setting": "[2]; organic solvent or mixture, MTBE", "result": 2000, "unit": "µg/mL"}, {"measurement": "solubility", "setting": "[2]; organic solvent or mixture, TFE", "result": "> 100000", "unit": "µg/mL"}, {"measurement": "solubility", "setting": "[2]; organic solvent or mixture, t-BuOAc, re-precipitated after first aliquot", "result": 1000, "unit": "µg/mL"}]}, {"smiles": "O=C1CC[C@@H](C(=O)O)N1", "note": "[(−)-L-Pyroglutamic acid]", "values": [{"measurement": "pKa", "setting": "[1]", "result": 3.32}]}, {"smiles": "O=C(O)/C=C/C(=O)O", "note": "[Fumaric acid]", "values": [{"measurement": "Solubility in isopropanol (in words)", "setting": "[3]; 25° C.", "result": "relatively low solubility"}]}, {"smiles": "CCCN1CC(Oc2ccc([C@@H]3c4[nH]c5ccccc5c4C[C@@H](C)N3CC(C)(C)F)cc2)C1.O=C(O)/C=C/C(=O)O", "note": "[Compound 1 Fumarate Form A Anhydrate]", "values": [{"measurement": "HPLC Purity (%) 60° C.", "setting": "[4]", "result": 99.54, "unit": "%"}, {"measurement": "HPLC Purity (%) Starting", "setting": "[4]", "result": 99.58, "unit": "%"}, {"measurement": "Stability relative to Amorphous Compound 1", "setting": "[4]", "result": "improved stability"}, {"measurement": "XRPD change after storage", "setting": "[4]", "result": "No change"}, {"measurement": "HPLC Purity (%) Degradation", "setting": "[4]", "result": "−0.04", "unit": "%"}, {"measurement": "solubility", "setting": "[5]", "result": 6.5, "unit": "mg/mL"}, {"measurement": "Hygroscopicity (%), water uptake", "setting": "[6]", "result": "hygroscopic (0.108) %"}, {"measurement": "Form Change after DVS?", "setting": "[6]", "result": "No"}, {"measurement": "Outcome of competitive slurry (XRPD)", "setting": "[7]; ethyl acetate, after 72 h", "result": "a mixture of Compound 1 Fumarate Form E and Compound 1 Fumarate Form A Anhydrate remained"}, {"measurement": "Outcome of competitive slurry (XRPD)", "setting": "[7]; isopropanol, after 24 h", "result": "completely transformed into Compound 1 Fumarate Form E"}, {"measurement": "Outcome of competitive slurry (XRPD)", "setting": "[7]; water, after 72 h", "result": "a mixture of Compound 1 Fumarate Form E and Compound 1 Fumarate Form A Anhydrate remained"}]}, {"smiles": "CCCN1CC(Oc2ccc([C@@H]3c4[nH]c5ccccc5c4C[C@@H](C)N3CC(C)(C)F)cc2)C1.O=C(O)/C=C/C(=O)O", "note": "[Compound 1 Fumarate Form E]", "values": [{"measurement": "HPLC Purity (%) 60° C.", "setting": "[4]", "result": 99.50, "unit": "%"}, {"measurement": "HPLC Purity (%) Starting", "setting": "[4]", "result": 99.54, "unit": "%"}, {"measurement": "Stability relative to Amorphous Compound 1", "setting": "[4]", "result": "improved stability"}, {"measurement": "XRPD change after storage", "setting": "[4]", "result": "No change"}, {"measurement": "HPLC Purity (%) Degradation", "setting": "[4]", "result": "−0.05", "unit": "%"}, {"measurement": "Solubility compared with Compound 1 Fumarate Form A Anhydrate", "setting": "[5]", "result": "much lower solubility"}, {"measurement": "solubility", "setting": "[5]", "result": 1.0, "unit": "mg/mL"}, {"measurement": "Bulk Density, Average", "setting": "[8]; average of three runs", "result": 0.1239, "unit": "g/mL"}, {"measurement": "Bulk Density", "setting": "[8]; single runs 1-3, untapped", "result": "0.1288 g/mL and 0.1233 g/mL and 0.1196 g/mL"}, {"measurement": "Hygroscopicity by DVS (in words)", "setting": "[6]; 25° C., 0 to 90% RH cycle", "result": "not hygroscopic"}, {"measurement": "Outcome of competitive slurry (XRPD)", "setting": "[7]; ethyl acetate, after 72 h", "result": "a mixture of Compound 1 Fumarate Form E and Compound 1 Fumarate Form A Anhydrate remained"}, {"measurement": "Outcome of competitive slurry (XRPD)", "setting": "[7]; isopropanol, after 24 h", "result": "more stable than Form A Anhydrate"}, {"measurement": "Outcome of competitive slurry (XRPD)", "setting": "[7]; water, after 72 h", "result": "a mixture of Compound 1 Fumarate Form E and Compound 1 Fumarate Form A Anhydrate remained"}, {"measurement": "Solubility in isopropanol (in words)", "setting": "[3]; 25° C.", "result": "very low solubility"}, {"measurement": "Change of solubility with increasing proportion of heptane", "setting": "[3]; isopropanol/heptane, 25° C.", "result": "decreased significantly"}, {"measurement": "solubility at 15 min", "setting": "[3]; IPA, 0° C.", "result": "< 1000", "unit": "µg/mL"}, {"measurement": "solubility at 15 min", "setting": "[3]; IPA, 25° C.", "result": "~8460", "unit": "µg/mL"}, {"measurement": "solubility at 15 min", "setting": "[3]; IPA/heptane (1/1), 25° C.", "result": "~2350", "unit": "µg/mL"}, {"measurement": "solubility at 15 min", "setting": "[3]; IPA/heptane (1/3), 25° C.", "result": "< 1000", "unit": "µg/mL"}, {"measurement": "solubility at 15 min", "setting": "[3]; IPA/heptane (5/1), 25° C.", "result": 5890, "unit": "µg/mL"}, {"measurement": "solubility at 15 min", "setting": "[3]; IPA/heptane (5/3), 25° C.", "result": "~3570", "unit": "µg/mL"}]}, {"smiles": "O=C(O)c1cc2ccccc2c(Cc2c(O)c(C(=O)O)cc3ccccc23)c1O", "note": "[Pamoic Acid]", "values": [{"measurement": "pKa", "setting": "[1]", "result": 2.51}]}, {"smiles": "CCCN1CC(Oc2ccc([C@@H]3c4[nH]c5ccccc5c4C[C@@H](C)N3CC(C)(C)F)cc2)C1", "note": "[Amorphous Compound 1, (1R,3R)-2-(2-fluoro-2-methylpropyl)-3-methyl-1-(4-((1-propylazetidin-3-yl)oxy)phenyl)-2,3,4,9-tetrahydro-1H-pyrido[3,4-b]indole]", "values": [{"measurement": "HPLC Purity (%) 60° C.", "setting": "[4]", "result": 98.94, "unit": "%"}, {"measurement": "HPLC Purity (%) Starting", "setting": "[4]", "result": 99.23, "unit": "%"}, {"measurement": "XRPD change after storage", "setting": "[4]", "result": "No change"}, {"measurement": "HPLC Purity (%) Degradation", "setting": "[4]", "result": "−0.29", "unit": "%"}, {"measurement": "Hygroscopicity (%), water uptake", "setting": "[6]", "result": "hygroscopic (0.463) %"}, {"measurement": "Form Change after DVS?", "setting": "[6]", "result": "No"}, {"measurement": "Solubility in isopropanol (in words)", "setting": "[3]; 25° C.", "result": "high solubility"}]}]}
